This is an account of results in US20100190688A1, “Tetrapeptide analogs” (priority 2004, published 2010).

Assay [1] addresses T1, BIR3-mediated Caspase-9 inhibition (UniProt Q9R0I6).
T1 construct: Nothing is printed for this assay
Briefly: Caspase-9 rescue assay (relief of BIR3-mediated Caspase-9 inhibition). In kind it is biochemical, human Caspase-9; Rat or Chicken BIR3. The note with it: average EC50, substrate Ac-LEHD-amc, pH 6.5. How it is done:
Additionally the compounds and compositions can be evaluated for their ability to achieve relief of BIR3-mediated Caspase-9 inhibition by measuring Caspase-9 reactivation. The fluorogenic substrate Ac-LEHD-7-amido-4-methylcoumarin is used in these methods. EC50 values of tested BIR3 inhibitors or Caspase-9 rescuers is calculated from the percentage of Caspase-9 reactivation in the mixtures containing serially diluted concentrations of tested compound. Typically, 10-point curves are generated for such EC50 determination.
Relief of BIR3-mediated Caspase-9 inhibition by BIR3 inhibitors was assayed by measuring Caspase-9 reactivation using the fluorogenic substrate Ac-LEHD-7-amido-4-methylcoumarin. A truncated form of human Caspase-9 that lacks the N-terminal Caspase recruitment domain (EPro-Caspase-9 or p35/p12) was used in the assay. This form of the enzyme has the full catalytic activity and the same substrate specificity as the full-length protein in the Apaf-1/Cytochrome C/dATP/Caspase-9 reconstituted system. Rat or Chicken BIR3 was used in this assay. […] This mixture was incubated for 40 min to allow equilibration at 25° C., and the assay progression was subsequently followed by monitoring the formation of fluorescent 7-amido-4-methylcoumarin over time at 460 nm using an excitation wavelength of 360 nm. […] EC50 values of tested BIR3 inhibitors or Caspase-9 rescuers were calculated from the percentage of Caspase-9 reactivation in the mixtures containing serially diluted concentrations of tested compound.

Another assay has as its target BIR3 domain of rat XIAP (Rattus norvegicus, UniProt Q9R0I6). As to the kind of experiment: Fluorescence polarization assay, binding to BIR3 from rat XIAP. (Fluorescence polarisation rises when a labelled molecule tumbles more slowly, as on binding a larger partner.)

Sequence of BIR3 domain of rat XIAP (Q9R0I6 241-355): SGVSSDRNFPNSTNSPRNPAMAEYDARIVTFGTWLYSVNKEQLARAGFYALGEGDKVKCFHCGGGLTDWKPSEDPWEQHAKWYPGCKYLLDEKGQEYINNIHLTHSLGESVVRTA
Method for BIR3 domain of rat XIAP: In fluorescence polarization assays a fluorescent probe is used. The binding affinity of compounds to BIR3 is measured by competitive displacement of a fluorescent probe using fluorescence polarization anisotropy. […] In other embodiments, the probe used is 6-(6-Hydroxy-3-oxo-3H-xanthen-9-yl)-N-(5-(2-methylamino-propionylamino)-6-oxo-6-[4-(1,2,3,4-tetrahydro-naphthalen-1-ylcarbamoyl)-thiazolidin-3-yl]-hexyl)-isophthalamic acid.
The binding affinity of compounds provided herein for rat BIR3 was measured by competitive displacement of a fluorescent probe using fluorescence polarization anisotropy. […] Control conditions were set up on each plate and include free probe 1 alone (5 nM), fully bound probe (5 μM BIR3+5 nM probe 1) and binding buffer blank. The-EC50 of binding was computed from a 4-parameter fit of the measured anisotropies using the SoftMax Pro 4.6 software package (Molecular Dynamics, Sunnyvale, Calif.).
Alternatively, probe 1 was substituted with probe 2: 6-(6-Hydroxy-3-oxo-3H-xanthen-9-yl)-N-{5-(2-methylamino-propionylamino)-6-oxo-6-[4-(1,2,3,4-tetrahydro-naphthalen-1-ylcarbamoyl)-thiazolidin-3-yl]-hexyl}-isophthalamic acid, for rat BIR3 and the concentrations of assay components changed. […] Controls were adjusted accordingly.

Consider `CNC(C)C(=O)NC(C(=O)NC(CCCCNS(C)(=O)=O)C(=O)NC1CCCc2ccccc21)C(C)C` (stereo not drawn) [6-Methanesulfonylamino-2-[3-methyl-2-(2-methylamino-propionylamino)-butyrylamino]-hexanoic acid (1,2,3,4-tetrahydro-naphthalen-1-yl)-amide], for which the EC50 (in assay [1]; on BIR3 domain of rat XIAP) was less than 1000 nM each time.
As for `CNC(C)C(=O)NC(C(=O)N1CSCC1C(=O)NC1CCCc2ccccc21)C(C)C` (stereo not drawn) [3-[3-Methyl-2-(2-methylamino-propionylamino)-butyryl]-thiazolidine-4-carboxylic acid (1,2,3,4-tetrahydro-naphthalen-1-yl)-amide], the EC50 (in assay [1]; on BIR3 domain of rat XIAP) was less than 1000 nM throughout.
For the compound `CN[C@@H](C)C(=O)N[C@H]1CCCC2CC[C@@H](C(=O)N[C@@H]3CCCc4ccccc43)N2C1=O` (stereo partly drawn) [6-(2-Methylamino-propionylamino)-5-oxo-octahydro-pyrrolo[1,2-a]azepine-3-carboxylic acid (1,2,3,4-tetrahydro-naphthalen-1-yl)-amide], the half-maximal effective concentration (EC50) (in assay [1]; at BIR3 domain of rat XIAP) was less than 1000 nM throughout.
On to `CNC(C)C(=O)NC(C(=O)NC(C(=O)NC1CCCc2ccccc21)C1CCCCC1)C(C)C` (stereo not drawn) [N-[Cyclohexyl-(1,2,3,4-tetrahydro-naphthalen-1-ylcarbamoyl)-methyl]-3-methyl-2-(2-methylamino-propionylamino)-butyramide], for which the EC50 (in assay [1]; on BIR3 domain of rat XIAP) was less than 1000 nM in each case.
Take `CNC(C)C(=O)NC(CCCCNC(=O)OCC1c2ccccc2-c2ccccc21)C(=O)N1CSCC1C(=O)NC1CCCc2ccccc21` (stereo not drawn) [{5-(2-Methylamino-propionylamino)-6-oxo-6-[4-(1,2,3,4-tetrahydro-naphthalen-1-ylcarbamoyl)-thiazolidin-3-yl]-hexyl}-carbamic acid 9H-fluoren-9-ylmethyl ester]: the EC50 (in assay [1]; at BIR3 domain of rat XIAP) was less than 1000 nM throughout.
For the compound `CC(NCC1CC1)C(=O)NC(C(=O)N1CCCC1C(=O)NC1CCCc2ccccc21)C(C)(C)C` (stereo not drawn) [1-{2-[2-(Cyclopropylmethyl-amino)-propionylamino]-3,3-dimethyl-butyryl}-pyrrolidine-2-carboxylic acid (1,2,3,4-tetrahydro-naphthalen-1-yl)-amide], the EC50 (as a rule, the concentration at which the effect is half-maximal) in assay [1] is 1000 to 10000 nM; on BIR3 domain of rat XIAP, less than 1000 nM.
Consider `CNC(C)C(=O)NC(C(=O)N(C)C(CCCCNC(=O)OCc1ccccc1)C(=O)NC1CCCc2ccccc21)C(C)C` (stereo not drawn) [[5-{Methyl-[3-methyl-2-(2-methylamino-propionylamino)-butyryl]-amino}-5-(1,2,3,4-tetrahydro-naphthalen-1-ylcarbamoyl)-pentyl]-carbamic acid benzyl ester], for which the EC50 in assay [1] was 1000 to 10000 nM; on BIR3 domain of rat XIAP, less than 1000 nM.
Take `CNC(C)C(=O)NC(C(=O)N1Cc2ccccc2CC1C(=O)NC(c1ccccc1)c1ccccc1)C(C)C` (stereo not drawn) [2-[3-Methyl-2-(2-methylamino-propionylamino)-butyryl]-1,2,3,4-tetrahydro-isoquinoline-3-carboxylic acid benzhydryl-amide]: the EC50 in assay [1] is 1000 to 10000 nM; at BIR3 domain of rat XIAP, less than 1000 nM.
On to `CNC(C)C(=O)NC(C(=O)N1Cc2ccccc2CC1C(=O)NC1CCCc2ccccc21)C(C)C` (stereo not drawn) [2-[3-Methyl-2-(2-methylamino-propionylamino)-butyryl]-1,2,3,4-tetrahydro-isoquinoline-3-carboxylic acid (1,2,3,4-tetrahydro-naphthalen-1-yl)-amide], for which the EC50 (in assay [1]; on BIR3 domain of rat XIAP) was less than 1000 nM throughout.
For the compound `CNC(C)C(=O)NC(C(=O)NC(CCCCNS(=O)(=O)c1ccc(OC)cc1)C(=O)NC1CCCc2ccccc21)C(C)C` (stereo not drawn) [6-(4-Methoxy-benzenesulfonylamino)-2-[3-methyl-2-(2-methylamino-propionylamino)-butyrylamino]-hexanoic acid (1,2,3,4-tetrahydro-naphthalen-1-yl)-amide], the EC50 (in assay [1]; on BIR3 domain of rat XIAP) was less than 1000 nM throughout.
For the compound `CNC(C)C(=O)NC(C(=O)NC(Cc1ccccc1)C(=O)NC1CCCc2ccccc21)C(C)C` (stereo not drawn) [3-Methyl-2-(2-methylamino-propionylamino)-N-[2-phenyl-1-(1,2,3,4-tetrahydro-naphthalen-1-ylcarbamoyl)-ethyl]-butyramide], the EC50 is more than 10000 nM in assay [1] and 1000 to 10000 nM on BIR3 domain of rat XIAP.
In the same order, the values of `CNC(C)C(=O)NC(C(=O)NC(CCCCNS(=O)(=O)C(F)(F)F)C(=O)NC1CCCc2ccccc21)C(C)C` (stereo not drawn) [2-[3-Methyl-2-(2-methylamino-propionylamino)-butyrylamino]-6-trifluoromethanesulfonylamino-hexanoic acid (1,2,3,4-tetrahydro-naphthalen-1-yl)-amide] are more than 10000 nM and less than 1000 nM.
In the same order, the values of `CCCCS(=O)(=O)NCCCCC(NC(=O)C(NC(=O)C(C)NC)C(C)C)C(=O)NC1CCCc2ccccc21` (stereo not drawn) [6-(Butane-1-sulfonylamino)-2-[3-methyl-2-(2-methylamino-propionylamino)-butyrylamino]-hexanoic acid (1,2,3,4-tetrahydro-naphthalen-1-yl)-amide] are less than 1000 nM and less than 1000 nM.
Taken in the same sequence, the figures for `CNC(C)C(=O)NC(C(=O)N1Cc2ccccc2CC1C(=O)NN(c1ccccc1)c1ccccc1)C(C)C` (stereo not drawn) [N-{1-[3-N′,N′-Diphenyl-hydrazinocarbonyl)-3,4-dihydro-1H-isoquinoline-2-carbonyl]-2-methyl-propyl}-2-methylamino-propionamide] were more than 10000 nM and more than 10000 nM.
On to `CC(C)CNC(C)C(=O)NC(C(=O)N1CCCC1C(=O)NC1CCCc2ccccc21)C(C)(C)C` (stereo not drawn) [1-[2-(2-Isobutylamino-propionylamino)-3,3-dimethyl-butyryl]-pyrrolidine-2-carboxylic acid (1,2,3,4-tetrahydro-naphthalen-1-yl)-amide], for which the concentration giving a half-maximal response (EC50) in assay [1] was 1000 to 10000 nM; at BIR3 domain of rat XIAP, less than 1000 nM.
For `CNC(C)C(=O)NC(C(=O)NC(CCC(=O)OCc1ccccc1)C(=O)NC1CCCc2ccccc21)C(C)C` (stereo not drawn) [4-[3-Methyl-2-(2-methylamino-propionylamino)-butyrylamino]-4-(1,2,3,4-tetrahydro-naphthalen-1-ylcarbamoyl)-butyric acid benzyl ester], the EC50 in assay [1] was 1000 to 10000 nM; on BIR3 domain of rat XIAP, less than 1000 nM.
Take `CNC(C)C(=O)NC(C(=O)N1CCCC1C(=O)NN(C)c1ccccc1)C(C)(C)C` (stereo not drawn) [N-{2,2-Dimethyl-1-[2-(N′-methyl-N′-phenyl-hydrazinocarbonyl)-pyrrolidine-1-carbonyl]-propyl}-2-methylamino-propionamide]: the EC50 was 1000 to 10000 nM in assay [1] and less than 1000 nM on BIR3 domain of rat XIAP.
Turning to `CNC(C)C(=O)NC(C(=O)N1CSCC1C(=O)NN(Cc1ccccc1)Cc1ccccc1)C(C)C` (stereo not drawn) [N-{1-[4-(N′,N′-Dibenzyl-hydrazinocarbonyl)-thiazolidine-3-carbonyl]-2-methyl-propyl}-2-methylamino-propionamide], the EC50 (in assay [1]; at BIR3 domain of rat XIAP) was less than 1000 nM each time.
For the compound `CNC(C)C(=O)NC(C(=O)N1CSCC1C(=O)NC(Cc1ccccc1)Cc1ccccc1)C(C)C` (stereo not drawn) [3-[3-Methyl-2-(2-methylamino-propionylamino)-butyryl]-thiazolidine-4-carboxylic acid (1-benzyl-2-phenyl-ethyl)-amide], the EC50 (in assay [1]; at BIR3 domain of rat XIAP) was less than 1000 nM in each case.
For the compound `CNC(C)C(=O)NC1CCC(=O)N2CCC(C(=O)NC3CCCc4ccccc43)N2C1=O` (stereo not drawn) [8-(2-Methylamino-propionylamino)-5,9-dioxo-hexahydro-pyrazolo[1,2-a][1,2]diazepine-1-carboxylic acid (1,2,3,4-tetrahydro-naphthalen-1-yl)-amide], the EC50 in assay [1] was 1000 to 10000 nM; at BIR3 domain of rat XIAP, less than 1000 nM.
Taken in the same sequence, the figures for `CNC(C)C(=O)NC(C(=O)NC(C(=O)NC1CCCc2ccccc21)c1ccccc1)C(C)C` (stereo not drawn) [3-Methyl-2-(2-methylamino-propionylamino)-N-[phenyl-(1,2,3,4-tetrahydro-naphthalen-1-ylcarbamoyl)-methyl]-butyramide] were less than 1000 nM and less than 1000 nM.
For `CNC(C)C(=O)NC(C(=O)N1CCSCC1C(=O)NC1CCCc2ccccc21)C(C)C` (stereo not drawn) [4-[3-Methyl-2-(2-methylamino-propionylamino)-butyryl]-thiomorpholine-3-carboxylic acid (1,2,3,4-tetrahydro-naphthalen-1-yl)-amide], the EC50 in assay [1] is 1000 to 10000 nM; on BIR3 domain of rat XIAP, less than 1000 nM.
In the case of `CNC(C)C(=O)NC(C(=O)N1CCCC1C(=O)NN(Cc1ccccc1)Cc1ccccc1)C(C)(C)C` (stereo not drawn) [N-{1-[2-(N′,N′-Dibenzyl-hydrazinocarbonyl)-pyrrolidine-1-carbonyl]-2,2-dimethyl-propyl}-2-methylamino-propionamide], the figures for the 50% effective concentration (EC50) (in assay [1]; on BIR3 domain of rat XIAP) were 1000 to 10000 nM and less than 1000 nM, respectively.
Taken in the same sequence, the figures for `CNC(C)C(=O)NC(C(=O)NC(COCc1ccccc1)C(=O)NC1CCCc2ccccc21)C(C)C` (stereo not drawn) [N-[2-Benzyloxy-1-(1,2,3,4-tetrahydro-naphthalen-1-ylcarbamoyl)-ethyl]-3-methyl-2-(2-methylamino-propionylamino)-butyramide] were 1000 to 10000 nM and less than 1000 nM.
